From patent US8361970B2, “Growth factor binding molecules” (University of South Florida, priority 2000, dated 2013)
Several values for one entry are separate records, joined by “and”; a condition that tells them apart may be missing. Equal entries are not always repeated. Where two headings read alike, the source gives them in different places.

Experiments:
[1] = tested on: PDGF-stimulated PDGFR tyrosine phosphorylation; assay: Inhibition of PDGF-stimulated PDGFR tyrosine phosphorylation in NIH 3T3 cells (anti-phosphotyrosine Western blot); type: cell-based
Procedure: Starved NIH 3T3 cells are pretreated with various growth factor binding agents (0-100 μM) for 5 min before stimulation with PDGF (10 ng/mL) for 10 min. The cells are then harvested and lysed, and the proteins from the lysates separated by SDS-PAGE and immunoblotted with an anti-phosphotyrosine antibody (4G10: Upstate Biotechnology, Lake Placid, N.Y.). The phosphotyrosine PDGF receptor bands are scanned, and the concentrations of growth factor binding molecules that inhibited the ability of PDGF to stimulate PDGFR tyrosine phosphorylation by 50% are determined.
Starved NIII 3T3 cells (PDGF-BB and PDGF-AA), NIH 3T3 cells overexpressing either EGFR (EGF) or Flk-1 (VEGF) are pre-treated with the indicated concentrations of GFB-111 for 5 minutes before 10 minutes of stimulation with PDGF-BB (10 ng/ml), PDGF-AA (10 ng/ml), EGF (100 ng/ml) and VEGF (50 ng/ml). Cell lysates are run on SDS-PAGE gels, then transferred to nitrocellulose and Western blotted with anti-phosphotyrosine (4G 10) or anti-phosphorylated Erk1/Erk2 (New England Biolabs).
A novel series of protein surface binding agents are prepared that bind PDGF and disrupt its signaling function. The molecules are composed of a central calix[4] arene scaffold to which is attached four peptide loop domains (FIG. 1). The peptide loop component is based on a cyclic hexapeptide in which two residues are replaced by a 3-aminomethylbenzoate dipeptide mimetic containing a 5-amino substituent for attachment to the scaffold. The resulting molecules (as shown in Table 1) contain a functionalized and variable surface approximately 500 Å^2 in area. Several peptide loop sequences are synthesized (Table 1) to provide molecular surfaces with negatively and positively charged as well as hydrophobic regions designed to bind to complementary areas on the target growth factor. To identify PDGF binding molecules from this library, a cell-based screening assay is developed with NIH 3T3 cells to detect molecules capable of blocking PDGF-BB-induced tyrosine autophosphorylation of the PDGF receptor. The ability of the identified molecules to bind PDGF-BB and inhibit interaction with its receptor is then confirmed biochemically. Starved NIH 3T3 cells are pretreated for 5 min with the synthetic molecules prior to stimulation with PDGF for 10 min. The effects of the molecules on PDGF-stimulated receptor tyrosine phosphorylation are determined by the antiphosphotyrosine Western blotting as described in Table 1. […] GFB-111 has four-fold symmetry containing 4 identical peptide loops with negative and hydrophobic residues, GlyAspGlyTyr (GDGY) (SEQ ID NO. 6), that are designed to be complementary to the PDGF surface involved in binding to PDGFR. The area of PDGF-BB that binds PDGFR is composed primarily of positive and hydrophobic residues.
Starved NIH 3T3 cells are pretreated with the various GFBs (0-100 μM) for 5 min. prior to stimulation with PDGF (10 ng/ml) for 10 min. The cells are then harvested lysed and the proteins from the lysates are separated by SDS-PAGE and immunoblotted with an anti-phosphotyrosine antibody (4G10, Upstate Biotechnology, Lake Placid, N.Y.). The phosphotyrosine PDGF receptor bands are scanned and the concentrations of GFBs that inhibit the ability of PDGF to stimulate PDGFR tyrosine phosphorylation by 50% are determined. Data for each compound is representative of at least two independent experiments. FIG. 1 illustrates the structure of growth factor binders. GFBs are synthesized as described by Park, H. D. et al., Protein surface recognition by synthetic receptors: A route to novel sub-micromolar inhibitors for chymotrypsin. J. Am. Chem. Soc. 121, 8-13 (1999); and Hamuro, Y. et al., A calixarene with four peptide loops: An antibody mimic for recognition of protein surfaces. Angew. Chemie Int. Ed. Engl. 36, 2680-2683 (1997), each herein incorporated by reference in its respective entirety.

PDGF-BB = molecular target: T1, PDGF-BB (Homo sapiens, UniProt P01127); assay: Inhibition of [125I]-PDGF-BB binding to its receptor on NIH 3T3 cells; conditions: FIG. 2C
T1 construct: host or cells: NIH 3T3 cells carry the receptor
Procedure: NIH 3T3 (PDGF) or NIH 3T3 cells overexpressing either EGFR (EGF), IGFR (IGF) or Flk-1 (VEGF), are incubated with [^125I]-PDGF, [^125I]-EGF, [^125I]-IGF or [^125I]-VEGF, respectively (50,000 cpm per well) and increasing concentrations of GFB-111 or GFB-116. Cells are incubated at 4° C. for 1-3 h. After discarding media, the cells are washed 3 times with PBS and three times with Tris 25 mM pH 8.0, 1% T-X-100, 10% glycerol, 1% SDS. Lysates plus wash are counted. Excess of cold growth factors is used to obtain non-specific binding levels.
Whether GFB 111 can block [^125I]-PDGF-BB specific binding in NIH 3T3 cells is determined by pre-treatment of the PDGF-BB with increasing concentrations of GFB-111. FIG. 2C illustrates that in the absence of GFB-111, [^125I]-PDGF-BB is bound by NIH3T3 cells. However, pre-treatment with increasing concentrations of GFB-111, results in a concentration-dependent decrease in PDGF-BB binding.

[2] = tested on: aFGF-stimulated MAP kinase activation of p42 and p44; assay: Inhibition of aFGF stimulation of p42/p44 MAP kinase in NIH 3T3 cells; type: cell-based
Procedure: In other experiments, starved NIH 3T3 cells (PDGF-AA, PDGF-BB, aFGF, bFGF), NIH 3T3 cells overexpressing EGFR. IGF-1R or Flk-1 and the human breast carcinoma SkBr3 that overexpresses ErbB2 (HRGβ) are pretreated with GFB-111 (100 μM) for 5 min before 10 min stimulation with the indicated growth factors at the concentrations shown above and aFGF (10 ng/ml), bFGF (50 ng/ml), IGF-1 (50 ng/ml) and HRGβ (10 ng/ml). Cell lysates are then immunoblotted with anti-phospho Erk1/Erk2 as described above.
The ability of growth factor binding agents in the library of growth factor binding agents to block an aFGF signal is measured by aFGF-stimulation of MAP kinase activation of p42 and p44 essentially as described above for VEGF. NIH 3T3 cells are used as the target cell. […] A preferred embodiment of the invention is a compound that binds to acidic fibroblast growth factor, of the general structure III, in which R is n-butyl, n-propyl, or benzyl, and X1, X2, X3, and X4 optionally comprise covalently attached cyclic peptide loops of the general structure II, wherein R1, R2, R3, and R4 are each amino acid side chains that define a tetrapeptide sequence, wherein said tetrapeptide is covalently attached at the amino and carboxy termini of said tetrapeptide to a 3-aminomethyl-5-aminobenzamide linking group, and wherein said tetrapeptide sequence is as given, for example, in Table 5.

[3] = tested on: human lung adenocarcinoma A-549; assay: Antitumor efficacy, A-549 xenograft in nude mice; type: in vivo; conditions: for Inhibition of A-549 tumor growth in nude mice: 50 mg per kg per day

T1 sequence (P01127 82-190 limits assumed): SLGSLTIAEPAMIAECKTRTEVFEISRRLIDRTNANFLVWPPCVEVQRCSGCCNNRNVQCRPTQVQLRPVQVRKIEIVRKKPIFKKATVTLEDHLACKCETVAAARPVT

| Molecule | Concentration giving complete block of PDGF-BB stimulated receptor tyrosine phosphorylation [1] | IC50 ([1]; read-out: IC50 of inhibition of PDGF-BB stimulation of PDGF receptor tyrosine autophosphorylation) | Block of PDGF-BB binding to its receptor (PDGF-BB) | aFGF-activation of Erk1/Erk2 ([2]; concentrations as high as 100 μM) | Inhibition of A-549 tumor growth in nude mice [3] | % Tumor growth inhibition ([3]; A-549, 50 mpk, day in parentheses in cell) | IC50 ([1]; 5 min pretreatment, PDGF 10 ng/ml 10 min, read-out: (IC50) Inhibition PDGFR-Y-P) | Block of aFGF-stimulation of MAP kinase activation of p42 and p44 ([2]; NIH 3T3) |
| --- | --- | --- | --- | --- | --- | --- | --- | --- |
| CCCCOc1c2cc(C(=O)Nc3cc4cc(c3)C(=O)NCC(=O)N[C@@H](CC(=O)O)C(=O)NCC(=O)N[C@@H](Cc3ccc(O)cc3)C(=O)NC4)cc1Cc1cc(C(=O)Nc3cc4cc(c3)C(=O)NCC(=O)N[C@@H](CC(=O)O)C(=O)NCC(=O)N[C@@H](Cc3ccc(O)cc3)C(=O)NC4)cc(c1OCCCC)Cc1cc(C(=O)Nc3cc4cc(c3)C(=O)NCC(=O)N[C@@H](CC(=O)O)C(=O)NCC(=O)N[C@@H](Cc3ccc(O)cc3)C(=O)NC4)cc(c1OCCCC)Cc1cc(C(=O)Nc3cc4cc(c3)C(=O)NCC(=O)N[C@@H](CC(=O)O)C(=O)NCC(=O)N[C@@H](Cc3ccc(O)cc3)C(=O)NC4)cc(c1OCCCC)C2 [GFB-111] | 3 µM | 0.25 µM | blocked | minimally affected | effective | 62% (30) and 53% (31) and 64% (27) | – | – |
| GKGK [GFB-116] | – | – | not | – | inhibits the growth | – | 40 µM | very effective |
